Reference: PubChem BioAssay AID330 (DTP/NCI, 2004)
“And” between values parts separate entries of the source, which are not always exact repeats. Identical values can stand only once. Toxic doses and inconclusive results are not listed. Square brackets hold non-standard residues; d marks the D form. Peptide text beside a SMILES is read from it. Abu = CC[CH](N)C(=O)O

System: P388 leukemia ip, CD2F1 mice, survival T/C
Test: NCI In Vivo Anticancer Drug Screen. Data for tumor model P388 Leukemia (intraperitoneal) in CD2F1 (CDF1) mice
Conditions: endpoint: median survival time, higher = longer survival
How it was run: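 Mice carrying the transplanted tumor received test compound or vehicle. Survival was recorded in each group, and the value is the treated-group measurement divided by that of the vehicle-treated control group.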

[1] = dose: 60.0 mg/kg/injection, schedule: Q01DX005 (ip), vehicle: saline with Tween-80
[2] = dose: 120.0 mg/kg/injection, schedule: Q01DX005 (ip), vehicle: saline with Tween-80
[3] = dose: 25.0 mg/kg/injection, schedule: Q01DX009 (ip), vehicle: Klucel (hydroxypropylcellulose) (HPC)
[4] = dose: 50.0 mg/kg/injection, schedule: Q01DX009 (ip), vehicle: Klucel (hydroxypropylcellulose) (HPC)
[5] = dose: 100.0 mg/kg/injection, schedule: Q01DX009 (ip), vehicle: Klucel (hydroxypropylcellulose) (HPC)
[6] = dose: 100.0 mg/kg/injection, schedule: Q01DX001 (ip), vehicle: saline with Tween-80
[7] = dose: 200.0 mg/kg/injection, schedule: Q01DX001 (ip), vehicle: saline with Tween-80
[8] = dose: 400.0 mg/kg/injection, schedule: Q01DX001 (ip), vehicle: saline with Tween-80
[9] = dose: 50.0 mg/kg/injection, schedule: Q01DX009 (ip), vehicle: saline
[10] = dose: 100.0 mg/kg/injection, schedule: Q01DX009 (ip), vehicle: saline
[11] = dose: 200.0 mg/kg/injection, schedule: Q01DX009 (ip), vehicle: saline
[12] = dose: 50.0 mg/kg/injection, schedule: Q01DX005 (ip), vehicle: saline with Tween-80
[13] = dose: 100.0 mg/kg/injection, schedule: Q01DX005 (ip), vehicle: saline with Tween-80
[14] = dose: 50.0 mg/kg/injection, schedule: Q01DX009 (ip), vehicle: saline with Tween-80
[15] = dose: 100.0 mg/kg/injection, schedule: Q01DX009 (ip), vehicle: saline with Tween-80
[16] = dose: 200.0 mg/kg/injection, schedule: Q01DX009 (ip), vehicle: saline with Tween-80
[17] = dose: 50.0 mg/kg/injection, schedule: Q01DX005 (ip), vehicle: Klucel (hydroxypropylcellulose) (HPC)
[18] = dose: 100.0 mg/kg/injection, schedule: Q01DX005 (ip), vehicle: Klucel (hydroxypropylcellulose) (HPC)
[19] = dose: 200.0 mg/kg/injection, schedule: Q01DX005 (ip), vehicle: Klucel (hydroxypropylcellulose) (HPC)

For CCc1ccc(N2C(=O)C(CC(=O)O)SC23C(=O)N(Cc2ccccc2)c2ccccc23)cc1 (stereo unspecified), the T/C [1] was 94 % of control and the T/C [2] was 97 % of control.

With CCCOc1ccc2c(NCCCCCCCCNc3c4ccccc4nc4cc(OCCC)ccc34)c3ccccc3nc2c1 the T/C (dose: 0.63 mg/kg/injection, schedule: Q01DX009 (ip), vehicle: other) was 109 % of control, the T/C (dose: 1.25 mg/kg/injection, schedule: Q01DX009 (ip), vehicle: lactic acid) was 162 % of control and the T/C (dose: 7.5 mg/kg/injection, schedule: Q01DX009 (ip), vehicle: other) was 90 % of control.

In the case of CCC(N)C(=O)NC(CO)C(=O)O (stereo unspecified) (H-[Abu]-Ser-OH; configuration not given here), the T/C (dose: 50.0 mg/kg/injection, schedule: Q01DX005 (ip), vehicle: saline) is reported as 106 % of control, the T/C (dose: 100.0 mg/kg/injection, schedule: Q01DX005 (ip), vehicle: saline) is reported as 109 % of control and the T/C (dose: 200.0 mg/kg/injection, schedule: Q01DX005 (ip), vehicle: saline) is reported as 106 % of control.

For COc1ccccc1N1CCCSC1=Nc1ccccc1, the T/C (dose: 12.5 mg/kg/injection, schedule: Q01DX009 (ip), vehicle: Klucel (hydroxypropylcellulose) (HPC)) was 105 % of control, the T/C [3] was 98 % of control and the T/C [4] was 90 % of control. The T/C [5] was 119 % of control and the T/C (dose: 200.0 mg/kg/injection, schedule: Q01DX009 (ip), vehicle: Klucel (hydroxypropylcellulose) (HPC)) was 90 % of control.

COc1cc(OCc2ccccc2)c(CC(=O)O)c([N+](=O)[O-])c1 was tested, and the T/C [6] was 100 % of control, the T/C [7] was 100 % of control and the T/C [8] was 90 % of control.

For Cn1c([N+](=O)[O-])cnc1/C=[N+](\[O-])CCO, the T/C [9] was 100 % of control, the T/C [10] was 100 % of control and the T/C [11] was 102 % of control.

With N#C/C=C/c1cccc([N+](=O)[O-])c1 the T/C [6] was 100 % of control, the T/C [7] was 100 % of control and the T/C [8] was 100 % of control.

In the case of O=[n+]1ccn([O-])c2ccccc21.[O-][Cl+3]([O-])([O-])O.[Zn+2], the T/C (dose: 100.0 mg/kg/injection, schedule: Q04DX003 (ip), vehicle: saline with Tween-80) is reported as 98 % of control.

In the case of c1ccc(CN2COc3c(ccc4ccccc34)C2)cc1, the T/C (dose: 100.0 mg/kg/injection, schedule: Q04DX003 (ip), vehicle: Klucel (hydroxypropylcellulose) (HPC)) is reported as 97 % of control, the T/C (dose: 200.0 mg/kg/injection, schedule: Q04DX003 (ip), vehicle: Klucel (hydroxypropylcellulose) (HPC)) is reported as 102 % of control and the T/C (dose: 400.0 mg/kg/injection, schedule: Q04DX003 (ip), vehicle: Klucel (hydroxypropylcellulose) (HPC)) is reported as 96 % of control.

Cc1csc2nc(-c3ccccc3)cn12 was tested, and the T/C [12] was 98 % of control, the T/C [13] was 96 % of control and the T/C (dose: 200.0 mg/kg/injection, schedule: Q01DX005 (ip), vehicle: saline with Tween-80) was 97 % of control.

With Fc1ccc(CSC(=S)Nc2ccc(F)c(F)c2)cc1 the T/C [4] was 111 % of control, the T/C [9] was 87 % of control and the T/C [10] was 107 % of control. The T/C [11] was 108 % of control.

For COc1cccc2c1C(=O)c1c(O)c3c(c(O)c1C2=O)CC(O)(C(=O)CO)CC3OC1CC(N)C(O)C(C)O1.[Cl][Pt+2][Cl].[NH2-].[NH2-] (stereo unspecified), the T/C (dose: 8.0 mg/kg/injection, schedule: Q04DX003 (ip), vehicle: DMSO) was 171 % of control and 182 % of control, the T/C (dose: 16.0 mg/kg/injection, schedule: Q04DX003 (ip), vehicle: DMSO) was 174 % of control and 193 % of control and the T/C (dose: 32.0 mg/kg/injection, schedule: Q04DX003 (ip), vehicle: DMSO) was 118 % of control. The T/C (dose: 64.0 mg/kg/injection, schedule: Q04DX003 (ip), vehicle: DMSO) was 100 % of control.

CCCCC(NC(=O)c1ccccc1)C(=O)O (stereo unspecified) was tested, and the T/C [14] was 92 % of control, the T/C [15] was 100 % of control and the T/C [16] was 98 % of control.

For c1ccc2c(c1)Nc1ncccc1S2, the T/C [14] was 99 % of control and 94 % of control, the T/C [15] was 92 % of control and 95 % of control and the T/C [16] was 107 % of control and 92 % of control. For the same compound, the T/C (dose: 400.0 mg/kg/injection, schedule: Q01DX009 (ip), vehicle: saline with Tween-80) was 108 % of control.

C[CH2][Sn]=[O].c1cc[c]([Ge]([c]2ccccc2)[c]2ccccc2)cc1 was tested, and the T/C (dose: 25.0 mg/kg/injection, schedule: Q01DX009 (ip), vehicle: saline) was 96 % of control, the T/C [9] was 88 % of control and 93 % of control and 96 % of control and the T/C [10] was 101 % of control and 88 % of control. For the same compound, the T/C [11] was 121 % of control and 88 % of control and 96 % of control.

For CCSC(SCC)C(NC(C)=O)C(O)C(O)C(O)CO (stereo unspecified), the T/C (dose: 12.5 mg/kg/injection, schedule: Q01DX009 (ip), vehicle: water) was 114 % of control, the T/C (dose: 25.0 mg/kg/injection, schedule: Q01DX009 (ip), vehicle: water) was 113 % of control and the T/C (dose: 50.0 mg/kg/injection, schedule: Q01DX009 (ip), vehicle: water) was 107 % of control. For the same compound, the T/C (dose: 100.0 mg/kg/injection, schedule: Q01DX009 (ip), vehicle: water) was 109 % of control and the T/C (dose: 200.0 mg/kg/injection, schedule: Q01DX009 (ip), vehicle: water) was 106 % of control.

With Cc1ccc(/C=C(\NC(=O)c2ccc(C)cc2)C(=O)O)cc1 the T/C [17] was 114 % of control, the T/C [18] was 114 % of control and the T/C [19] was 107 % of control.

CC(C)N(C(C)C)P1P(N(C(C)C)C(C)C)P(N(C(C)C)C(C)C)P1N(C(C)C)C(C)C (stereo unspecified) was tested, and the T/C [1] was 88 % of control, the T/C [2] was 86 % of control and the T/C (dose: 240.0 mg/kg/injection, schedule: Q01DX005 (ip), vehicle: saline with Tween-80) was 89 % of control.

With Cc1ccc(OCCCCBr)c(Br)c1 the T/C [17] was 105 % of control, the T/C [18] was 101 % of control and the T/C [19] was 97 % of control.

With CCOC(=O)CCN(CCN(C)C)c1cc(O)c2c(c1O)C(=O)c1ccccc1C2=O the T/C [12] was 121 % of control and the T/C [13] was 120 % of control.

With N/C(=N\N=C\c1cc(Br)cc(Br)c1O)N/N=C/c1cc(Br)cc(Br)c1O the T/C (dose: 12.5 mg/kg/injection, schedule: Q01DX009 (ip), vehicle: distilled water + Tween-80) was 88 % of control, the T/C (dose: 25.0 mg/kg/injection, schedule: Q01DX009 (ip), vehicle: distilled water + Tween-80) was 93 % of control and the T/C (dose: 50.0 mg/kg/injection, schedule: Q01DX009 (ip), vehicle: distilled water + Tween-80) was 90 % of control. The T/C (dose: 200.0 mg/kg/injection, schedule: Q01DX009 (ip), vehicle: distilled water + Tween-80) was 98 % of control.

In the case of COc1cc(C=Nc2ccc(C(=O)O)cc2)ccc1N(CCCl)CCCl, the T/C (dose: 37.5 mg/kg/injection, schedule: Q04DX003 (ip), vehicle: saline with Tween-80) is reported as 155 % of control and the T/C (dose: 50.0 mg/kg/injection, schedule: Q04DX003 (ip), vehicle: saline with Tween-80) is reported as 90 % of control.

In the case of COC1CC2C=CC3C4OC2(/C(C)=C/C(C)C(C(C)O)OC1=O)C3C(O)C(C)C4OC(=O)c1ccc[nH]1 (stereo unspecified), the T/C (dose: 12.5 mg/kg/injection, schedule: Q01DX005 (ip), vehicle: Klucel (hydroxypropylcellulose) (HPC)) is reported as 104 % of control, the T/C (dose: 25.0 mg/kg/injection, schedule: Q01DX005 (ip), vehicle: Klucel (hydroxypropylcellulose) (HPC)) is reported as 99 % of control and the T/C [17] is reported as 95 % of control. The T/C [18] was 99 % of control and the T/C [19] was 98 % of control.

In the case of CSCSCC(N)CO (stereo unspecified), the T/C (dose: 25.0 mg/kg/injection, schedule: Q01DX005 (ip), vehicle: water) is reported as 95 % of control, the T/C (dose: 50.0 mg/kg/injection, schedule: Q01DX005 (ip), vehicle: water) is reported as 100 % of control and the T/C (dose: 100.0 mg/kg/injection, schedule: Q01DX005 (ip), vehicle: water) is reported as 89 % of control. The T/C (dose: 200.0 mg/kg/injection, schedule: Q01DX005 (ip), vehicle: water) was 95 % of control and the T/C (dose: 400.0 mg/kg/injection, schedule: Q01DX005 (ip), vehicle: water) was 89 % of control.

In the case of CCc1cc(/C=C2/OC(=O)c3ccccc32)cc(CC)c1O, the T/C (dose: 100.0 mg/kg/injection, schedule: Q04DX002 (ip), vehicle: saline) is reported as 101 % of control, the T/C (dose: 200.0 mg/kg/injection, schedule: Q04DX002 (ip), vehicle: saline) is reported as 100 % of control and the T/C (dose: 400.0 mg/kg/injection, schedule: Q04DX002 (ip), vehicle: saline) is reported as 100 % of control.

For CN(C)CC/C([O-])=N/[n+]1c2c(nc3ccccc31)-c1cccc3cccc-2c13, the T/C [3] was 109 % of control, the T/C [4] was 111 % of control and the T/C [5] was 116 % of control.
